From PubChem BioAssay (NCI)
“And” between values parts separate entries of the source, which are not always exact repeats. Equal values may be shown once.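 Assay format: 96-well plates, 48-hour exposure. The concentration for 50% growth inhibition is given as GI50. At the TGI there is no net growth.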

Columns and labels:
Experiment in all cases: growth of human tumour cells (NCI), 48 h
MALME-3M melanoma = test system: MALME-3M melanoma
HCT-116 colon = test system: HCT-116 colon
CCRF-CEM leukemia = test system: CCRF-CEM leukemia
UACC-62 melanoma = test system: UACC-62 melanoma
HCC-2998 colon = test system: HCC-2998 colon
NCI-H226 lung = test system: NCI-H226 lung
KM12 colon = test system: KM12 colon
HCT-15 colon = test system: HCT-15 colon
TK-10 renal = test system: TK-10 renal
UACC-257 melanoma = test system: UACC-257 melanoma

SMILES	GI50 (MALME-3M melanoma)	TGI (MALME-3M melanoma)	GI50 (HCT-116 colon)	TGI (HCT-116 colon)	GI50 (CCRF-CEM leukemia)	TGI (CCRF-CEM leukemia)	GI50 (UACC-62 melanoma)	TGI (UACC-62 melanoma)	GI50 (HCC-2998 colon)	TGI (HCC-2998 colon)	GI50 (NCI-H226 lung)	TGI (NCI-H226 lung)	GI50 (KM12 colon)	TGI (KM12 colon)	GI50 (HCT-15 colon)	TGI (HCT-15 colon)	GI50 (TK-10 renal)	TGI (TK-10 renal)	GI50 (UACC-257 melanoma)	TGI (UACC-257 melanoma)
COc1ccc(C2CC(=O)c3c(OC)cc(OC)cc3O2)cc1 (stereo not drawn)	> 100 µM	> 100 µM	> 100 µM	> 100 µM	4.2 µM	> 100 µM	> 100 µM	> 100 µM	> 100 µM	> 100 µM	> 100 µM	> 100 µM	> 100 µM	> 100 µM	> 100 µM	> 100 µM	> 100 µM	> 100 µM	> 100 µM	> 100 µM
CCCCCCCCCCC(O)C1CCC(C2CCC(C(O)CCCCC(O)CCCCCC(O)CC3=CC(C)OC3=O)O2)O1 (stereo not drawn)		> 25 µM	1.04 µM	> 25 µM	1.58 µM	> 25 µM	> 25 µM	9.08 µM and > 25 µM		> 25 µM	> 25 µM	> 25 µM	> 25 µM	> 25 µM	4.64 µM	> 25 µM	1.98 µM	> 25 µM	0.452 µM	> 25 µM
COc1ccc(-n2cc(-c3cc(OC)c(OC)c(OC)c3)[nH]c2=S)cc1OC	> 100 µM	> 100 µM	> 100 µM	> 100 µM	> 100 µM	> 100 µM	> 100 µM	> 100 µM	76.8 µM	> 100 µM	> 100 µM	> 100 µM	> 100 µM	> 100 µM	> 100 µM	> 100 µM	> 100 µM	> 100 µM	> 100 µM	> 100 µM
Cc1cccc(C(C)(C)C)c1NC(=O)CCc1n[nH]c(=S)o1		> 100 µM		33.9 µM		> 100 µM		> 100 µM		> 100 µM		0.832 µM		> 100 µM		49 µM		> 100 µM		> 100 µM
COc1ccc(-c2nc(-c3nc4ccc(C)cc4[nH]3)c3ccccn23)cc1	2.83 µM	8.62 µM	3.26 µM	9.46 µM	1.97 µM	6.28 µM	2.14 µM	5.66 µM	2.93 µM	7.01 µM	3.88 µM	> 100 µM	2.38 µM	9.07 µM	2.83 µM	> 100 µM	3.39 µM	9.22 µM	2.41 µM	6.17 µM
COC(=O)C(=O)C(C(=O)C(=O)Nc1ccc(C)cc1C)c1nc2ccccc2[nH]c1=O (stereo not drawn)		> 100 µM		> 100 µM		> 100 µM		> 100 µM		> 100 µM		> 100 µM		> 100 µM		> 100 µM		> 100 µM		> 100 µM
CSc1nc(NC2OC(COC(C)=O)C(OC(C)=O)C(OC(C)=O)C2OC(C)=O)c2c(OC(C)=O)c(C)c(=O)oc2n1 (stereo not drawn)		> 100 µM		> 100 µM		> 100 µM		> 100 µM		> 100 µM		> 100 µM		> 100 µM		> 100 µM		> 100 µM		> 100 µM
Cn1cc(C2=C(c3cn(C)c4c(N)cccc34)C(=O)NC2=O)c2ccccc21	9.53 µM	> 25 µM	1.03 µM	> 20.6 µM	0.797 µM	> 25 µM	2.48 µM	18.1 µM	6.01 µM	> 25 µM	3.28 µM	> 22.1 µM	0.968 µM	12.1 µM	0.743 µM	> 25 µM	4.28 µM	18.3 µM	4.76 µM	> 25 µM
